{
  "source": "patent US10918645B2",
  "about": "(LIFEARC, priority 2016, dated 2021)",
  "type_in_all_cases": "biochemical",
  "key": {"[1]": {"biological_target": "Src (Homo sapiens (Human), UniProt P12931)", "sequence (P12931 whole entry, looked up, species assumed)": "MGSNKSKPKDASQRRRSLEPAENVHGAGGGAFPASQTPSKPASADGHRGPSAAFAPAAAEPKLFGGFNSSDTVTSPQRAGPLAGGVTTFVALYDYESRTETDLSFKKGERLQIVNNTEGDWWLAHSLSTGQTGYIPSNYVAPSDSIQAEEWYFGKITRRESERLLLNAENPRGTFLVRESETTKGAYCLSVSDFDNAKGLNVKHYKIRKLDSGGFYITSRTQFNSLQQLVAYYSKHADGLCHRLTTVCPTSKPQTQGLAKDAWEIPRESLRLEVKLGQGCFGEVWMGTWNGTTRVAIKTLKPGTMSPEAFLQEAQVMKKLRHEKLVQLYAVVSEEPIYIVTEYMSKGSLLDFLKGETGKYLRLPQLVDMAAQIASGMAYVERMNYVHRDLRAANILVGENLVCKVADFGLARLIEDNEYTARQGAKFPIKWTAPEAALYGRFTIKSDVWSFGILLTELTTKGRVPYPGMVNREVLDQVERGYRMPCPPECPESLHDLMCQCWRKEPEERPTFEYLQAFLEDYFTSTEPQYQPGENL", "experiment": "Src kinase selectivity assay", "settings": "1 μM inhibitor concentration", "procedure": "(§1) Src (5-20 mU diluted in 50 mM Tris pH 7.5, 0.1 mM EGTA, 0.1% b-mercaptoethanol, 1 mg/ml BSA) is assayed against a substrate peptide ([…]) in a final volume of 25.5 μl containing 50 mM Tris pH 7.5, 0.05% b-mercaptoethanol, 300 μM substrate peptide, 10 mM magnesium acetate and 0.05 mM [33P-g-ATP] (50-1000 cpm/pmole) and incubated for 30 min at room temperature. Assays are stopped by addition of 5 μl of 0.5 M (3%) orthophosphoric acid and then harvested onto P81 Unifilter plates with a wash buffer of 50 mM orthophosphoric acid."}, "[2]": {"biological_target": "AuroraB (Homo sapiens (Human), UniProt Q96GD4)", "sequence (Q96GD4 whole entry)": "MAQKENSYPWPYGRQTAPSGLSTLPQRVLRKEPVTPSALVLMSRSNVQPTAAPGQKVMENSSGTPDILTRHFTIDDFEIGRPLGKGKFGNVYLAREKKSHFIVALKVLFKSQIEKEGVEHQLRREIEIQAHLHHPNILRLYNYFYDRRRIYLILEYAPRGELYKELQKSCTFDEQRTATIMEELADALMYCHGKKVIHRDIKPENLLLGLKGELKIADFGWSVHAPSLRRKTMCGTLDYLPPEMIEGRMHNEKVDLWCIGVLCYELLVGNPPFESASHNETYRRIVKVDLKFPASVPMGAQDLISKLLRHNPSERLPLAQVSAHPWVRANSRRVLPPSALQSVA", "experiment": "AuroraB kinase selectivity assay", "settings": "1 μM inhibitor concentration", "procedure": "as §1, with “Aurora B (5-20” for “Src (5-20”, “and 0.02” for “and 0.05”, “mM [33P-g-ATP](50-1000” for “mM [33P-g-ATP] (50-1000”"}, "[3]": {"biological_target": "NEK6 (Homo sapiens (Human), UniProt Q9HC98)", "sequence (Q9HC98 whole entry, species assumed)": "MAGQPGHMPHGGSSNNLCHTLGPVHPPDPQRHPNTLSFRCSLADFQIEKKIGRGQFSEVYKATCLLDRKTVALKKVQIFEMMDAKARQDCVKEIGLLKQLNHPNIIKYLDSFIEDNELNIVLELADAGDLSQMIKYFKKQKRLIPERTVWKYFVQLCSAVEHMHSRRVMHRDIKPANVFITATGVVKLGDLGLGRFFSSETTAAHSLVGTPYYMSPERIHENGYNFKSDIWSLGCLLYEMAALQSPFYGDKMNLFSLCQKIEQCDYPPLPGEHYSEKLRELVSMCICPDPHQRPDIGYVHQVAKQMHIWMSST", "experiment": "NEK6 kinase selectivity assay", "settings": "1 μM inhibitor concentration", "procedure": "NEK6 (5-20 mU diluted in 50 mM Tris (pH 7.5), 0.1 mM EGTA, 1 mg/ml BSA, 0.1%, b-Mercaptoethanol) is assayed against NEK6 peptide ([…]) in a final volume of 25.5 μl containing 50 mM Tris (pH 7.5), 0.1 mM EGTA, 0.01% Brij, 0.1%, b-Mercaptoethanol, NEK6 peptide (0.3 mM), 10 mM magnesium acetate and 0.05 mM [33P-g-ATP](500-1000 cpm/pmole) and incubated for 30 min at room temperature. Assays are stopped by addition of 5 μl of 0.5 M (3%) orthophosphoric acid and then harvested onto P81 Unifilter plates with a wash buffer of 50 mM orthophosphoric acid."}, "[4]": {"biological_target": "SYK (Homo sapiens (Human), UniProt P43405)", "experiment": "SYK kinase selectivity assay", "settings": "1 μM inhibitor concentration", "procedure": "SYK (5-20 mU diluted in 50 mM Tris pH 7.5, 0.1 mM EGTA, 1 mg/ml BSA) is assayed against a substrate peptide (Poly Glut Tyr) in a final volume of 25.5 μl containing 50 mM Tris pH 7.5, 1 mg/ml substrate peptide, 10 mM magnesium acetate and 0.02 mM [33P-g-ATP] (50-1000 cpm/pmole) and incubated for 30 min at room temperature. Assays are stopped by addition of 5 μl of 0.5 M (3%) orthophosphoric acid and then harvested onto P81 Unifilter plates with a wash buffer of 50 mM orthophosphoric acid."}, "[5]": {"biological_target": "T1, JAK2 (Homo sapiens (Human), UniProt O60674)", "experiment": "LANCE Kinase Assay (JAK2_IC50 selectivity assay)", "source_text": "In LANCE® Kinase Assay (JAK2_IC50 selectivity assay): JAK2 (Invitrogen, Cat. No PV4288), ATP (Sigma, Cat. No. A7699-1G), DMSO (Sigma, Cat. No. D2650), DTT (Sigma, Cat. No. 43815), LANCE Ultra ULight™-JAK-1 peptide (Perkin Elmer, Cat. No. TRF0121), LANCE Eu-W1024 Anti-phosphotyrosine (PT66) (Perkin Elmer, Cat. No. AD0069), LANCE™ Detection Buffer (Perkin Elmer, Cat. No. CR97-100), Tofacitinib (PharmaBlock Sciences(Nanjing), Inc, Cat. No. PBN2011586-01); Equipments: Envision (Perkin Elmer), Bravo (Agilent); Consumables: 384 well Intermediate plate (Greiner, Cat. No. 781280), 384 well assay plate (Perkin Elmer, Cat. No. 6007299),\nThe assay involves two steps, the enzymatic step and the detection step with HTRF reagents. Step 1: During the enzymatic step the substrate-biotin is incubated with the kinase of interest. ATP is added to start the reaction. Step 2: The detection reagent catches the phosphorylated substrate and the resulting TR-FRET is proportional to the phosphorylation level.\nCompound Preparation: Dissolve the test compounds into 30 mM DMSO solution and put them in nitrogen hood at room temperature for long term storage; Dilute the 30 mM compound in DMSO with 3-fold factor, total 11 concentrations; Aspirate 1 μl compound and then dilute them in 25 folds with kinase buffer. Mix well and balance 30 minutes at room temperature.\nKinase Reaction: Transfer 2.5 μl compounds in kinase buffer (4×) into assay plate by Agilent Bravo. Spin the plate; Transfer 5 μl enzyme mixture into the assay plate by using Eppendorf electronic multi-channel pipette. Spin the plate; Incubate the assay plate for 20 minutes at room temperature (23° C.); Add 2.5 μl kinase buffer with ATP into the assay plate by using Multidrop. Spin and seal the plate; Incubate the assay plate for 90 minutes at room temperature (23° C.).\nStop Reaction: Transfer 10 μl detection reagent (2 nM LANCE Eu-W1024 Anti-phosphotyrosine) into the assay plate by using Eppendorf electronic multi-channel pipette. Spin and seal the plate; Incubate the assay plate at room temperature (23° C.) for 60 minutes.\nDetection and Read: The excitation wavelength is 340 nm, the primary emission wavelength is 615 nm and the secondary emission wavelength is 665 nm (for Cryptate and Ulight, respectively). Read the plate with EnVision to get the readout of both wavelengths; Calculate the ratio of 665 nm/615 nm.\nIC50 estimates were obtained using the software XLfit (IDBS Inc.)."}, "[6]": {"biological_target": "T1, JAK2", "experiment": "JAK2 kinase selectivity assay (33P panel)", "settings": "1 μM inhibitor concentration", "procedure": "JAK2 (5-20 mU diluted in 50 mM Tris pH 7.5, 0.1 mM EGTA, 0.05% 0-mercaptoethanol, 1 mg/ml BSA) is assayed against PDKtide ([…]-[…]) in a final volume of 25.5 μl containing 50 mM Tris pH 7.5, 0.1 mM EGTA, 0.05% 0-mercaptoethanol, 100 μM substrate peptide, 10 mM magnesium acetate and 0.005 mM [33P-γ-ATP] (50-1000 cpm/pmole) and incubated for 30 min at room temperature Assays are stopped by addition of 5 μl of 0.5 M (3%) orthophosphoric acid and then harvested onto P81 Unifilter plates with a wash buffer of 50 mM orthophosphoric acid."}},
  "data": [
    {"compound": "c1cc2[nH]nc3c2c(n1)N(C1CCOCC1)CCC3", "note": "[Example 29, 6-(tetrahydro-2H-pyran-4-yl)-6,7,8,9-tetrahydro-2H-1,2,5,6-tetraazabenzo[cd]azulene]", "values": [
      {"measurement": "percentage inhibition of Src", "setting": "[1]", "result": 0, "unit": "percentage"},
      {"measurement": "percentage inhibition of AuroraB", "setting": "[2]", "result": 29, "unit": "percentage"},
      {"measurement": "percentage inhibition of NEK6", "setting": "[3]", "result": 1, "unit": "percentage"},
      {"measurement": "percentage inhibition of SYK", "setting": "[4]", "result": 0, "unit": "percentage"}
    ]},
    {"compound": "c1cc2[nH]nc3c2c(n1)N(C1CCC1)CCC3", "note": "[Example 22, 6-cyclobutyl-6,7,8,9-tetrahydro-2H-1,2,5,6-tetraazabenzo[cd]azulene]", "values": [
      {"measurement": "percentage inhibition of Src", "setting": "[1]", "result": 13, "unit": "percentage"},
      {"measurement": "percentage inhibition of AuroraB", "setting": "[2]", "result": 23, "unit": "percentage"},
      {"measurement": "percentage inhibition of NEK6", "setting": "[3]", "result": 3, "unit": "percentage"},
      {"measurement": "IC50", "setting": "[5]", "result": 8.4, "unit": "µM"},
      {"measurement": "percentage inhibition of SYK", "setting": "[4]", "result": 0, "unit": "percentage"},
      {"measurement": "percentage inhibition of JAK2", "setting": "[6]", "result": 5, "unit": "percentage"}
    ]},
    {"compound": "CC(C)n1ncc2c1CN(C1CCN(C)CC1)c1nccc3[nH]nc-2c13", "note": "[Example 68]", "values": [
      {"measurement": "percentage inhibition of Src", "setting": "[1]", "result": 0, "unit": "percentage"},
      {"measurement": "percentage inhibition of AuroraB", "setting": "[2]", "result": 19, "unit": "percentage"},
      {"measurement": "percentage inhibition of NEK6", "setting": "[3]", "result": 0, "unit": "percentage"},
      {"measurement": "IC50", "setting": "[5]", "result": 6.3, "unit": "µM"},
      {"measurement": "percentage inhibition of SYK", "setting": "[4]", "result": 1, "unit": "percentage"}
    ]},
    {"compound": "c1cc2[nH]nc3c2c(n1)N(C1CCCC1)CCC3", "note": "[Example 23, 6-cyclopentyl-6,7,8,9-tetrahydro-2H-1,2,5,6-tetraazabenzo[cd]azulene]", "values": [
      {"measurement": "percentage inhibition of Src", "setting": "[1]", "result": 0, "unit": "percentage"},
      {"measurement": "percentage inhibition of AuroraB", "setting": "[2]", "result": 1, "unit": "percentage"},
      {"measurement": "percentage inhibition of NEK6", "setting": "[3]", "result": 1, "unit": "percentage"},
      {"measurement": "percentage inhibition of SYK", "setting": "[4]", "result": 0, "unit": "percentage"},
      {"measurement": "percentage inhibition of JAK2", "setting": "[6]", "result": 12, "unit": "percentage"}
    ]},
    {"compound": "CN1CCC(N2Cc3ccccc3-c3n[nH]c4ccnc2c34)CC1", "note": "[Example 55]", "values": [
      {"measurement": "percentage inhibition of Src", "setting": "[1]", "result": 1, "unit": "percentage"},
      {"measurement": "percentage inhibition of AuroraB", "setting": "[2]", "result": 38, "unit": "percentage"},
      {"measurement": "percentage inhibition of NEK6", "setting": "[3]", "result": 0, "unit": "percentage"},
      {"measurement": "percentage inhibition of SYK", "setting": "[4]", "result": 0, "unit": "percentage"}
    ]}
  ]
}
